# Laboratory results taken from PMC4104761, “Identification of a novel lytic peptide for the treatment of solid tumours” (Genes & Cancer, 2014).
# Experiments:
# [1] = Biodistribution of 125I-Cypep-1 after i.v. injection; assay type: in vivo, Wistar rat; details: rat
# Description: The radio labelling of Cypep-1 was performed with ^125I, according to the Iodo-Gen method as described by Fraker et al.. The obtained ^125I-Cypep-1 stock solution was stored in the dark at 4°C for 48 hours prior to validation by reversed phase chromatography, using a 4.6 × 50 mm Dionex Proswift RP-2H column on an Ettan LC System (GE Healthcare, Oslo, Norway) in line with a Radiomatic 610TR Flow System Analyzer by Perkin Elmer (PerkinElmer, Waltham, MA) for gamma detection.
# The plasma activity and biodistribution of ^125I-Cypep-1 was evaluated in a single experiment. An adult female Wistar rat of 260 g body weight was anaesthetized using 15 mg of Pentobarbital i.p.. Its body temperature was maintained at 37°C, using both a heating pad and an infrared lamp. Two PE-50 polyethylene catheters were placed into the femoral vein for the bolus injection of Cypep-1 and one into the femoral artery for blood sampling. 50 µl of the ^125I-Cypep-1 stock solution dissolved in 500 µl 0.9% NaCl were injected i.v., and a total of six arterial blood samples (100 µl per sample) were collected at 0.25, 1, 5, 10, 15 and 20 min following the ^125I-Cypep-1 administration. The animal was sacrificed under deep anaesthesia with an i.v. bolus injection of 0.5 ml saturated KCl. The tissue and plasma samples were harvested immediately and counted for ^125I-activity in a gamma-counter (LKB Wallac 1285, Turku, Finland). The peptide distribution volumes in the various body tissues were calculated as the ^125I-activity per gram tissue sample divided by the time-averaged plasma ^125I-activity during the 20 minutes clearance period (*= plasma equivalent space in ml/g tissue wet weight).
# all cancer cell lines = assay: MTT viability assay, average of all cancer cell lines; assay type: cell-based; details: 20 µg Cypep-1/ml, 60 min exposure
# Description: (§1) Cypep-1 was tested in various concentrations on a total of 17 cell lines, which included 13 human and 1 murine tumour cell line(s), as well as 3 normal human cell lines. Listed in detail: 4 human osteosarcoma (U2OS, SaOS2, HOS and MNNG-HOS), 6 human glioblastoma (A172, GaMg, LN18, U87, U373 and T98G) and 3 human mammary carcinoma cell lines (MCF7, AU565 and MDA-MB-468) as well as an additional murine mammary carcinoma cell line (4T1). Furthermore, 3 normal human cell lines were included: 2 normal human fibroblast cell lines (HFF1 and 142Br) as well as normal human osteoblasts (HOB).
# (§2) MTT proliferation assays were performed on all cell lines (with the exception of 142Br (human skin fibroblasts)), using monolayers of 15 000 cells in sterile 96 well tissue culture plates (Nunc™, Roskilde, Denmark), respectively. All cells were incubated with Cypep-1 dissolved in 0.9% NaCl, at the following concentrations: 0.1, 0.5, 1.0, 5, 10, 15, 20, 25, 30 and 35µg of Cypep-1 per ml and assayed after 15, 30, 45, 60, 75, 90, 180, 270 and 360 min.
# [2] = Liposome leakage assay (ANTS/DPX fluorescence); assay type: biochemical; details: 25°C, pH 7.4, fluorescence at 510 nm, triplicate; for leakage of ANTS from liposomes: 0 to 90 µg/ml
# Description: To assess the membranolytic effect of Cypep-1 on the integrity of phospholipid model membranes, liposome leakage assays monitored by fluorescence spectroscopy were performed on 200 nm liposomes as described earlier. […] (purchased from CPC Scientific, San Jose, CA) was used as control in the leakage assays (Peptide A).
# Negatively charged PBPS: EYL (1:1 mixture) as well as neutral pure EYL vesicles were used, in which both liposome types encapsulated the fluorochrome ANTS (8 aminonaphtalene-1,3,6 trisulfonic acid) and its corresponding quencher DPX (p-xylene-bis[N-pyridinium bromide]). In principle, a disruption of the liposomes' bi-layer induces leakage of the fluorophore ANTS. This entails an increase in fluorescence at 510 nm. All fluorescence spectra were recorded at 25°C and pH 7.4 on a Cary Eclipse Fluorescence Spectrophotometer (Varian Optical Spectroscopy Instruments, Mulgrave, Victoria, Australia). The respective titrations with Cypep-1 and the control Peptide A were performed in concentrations ranging from 0 µg/ml to 90 µg/ ml (0 µM to 26 µM). The fluorescence was measured for each concentration point of the concentration series, and all measurements were performed in triplicate. At the end of each measurement, Triton X-100 was added to a final concentration of 2 mM, to obtain the maximum membrane leakage. The resulting maximum fluorescence at 510 nm is defined as 100%, i.e. complete liposome breakdown. The induced leakages of the fluorophore ANTS due to exposure to the peptides were then evaluated as a percentage of its complete release after Triton X-100 exposure. The initial fluorescence intensity of the respective liposome solutions was defined as 0% leakage.
# normal human cell lines = assay: MTT viability assay, average of normal human cell lines; assay type: cell-based; details: 20 µg Cypep-1/ml, 60 min exposure
# Description: as §1, §2
# BALB/c mice = assay: In vivo toxicity after tail vein injection; set-up: species or system mouse; details: 100 µl bolus per animal
# Description: Cypep-1 was injected into the lateral tail vein of 37 BALB/c mice (average age 131,7 days; average weight 25.2 g). In detail, the group consisted of 18 male (average weight 26.5g) and 19 female animals (average weight 23.9g). The respective peptide concentrations administered were increased systematically from 50µg up to 800µg Cypep-1 per bolus per animal. All Cypep-1 doses were adjusted to a total injection volume of 100µl 0,9% NaCl, which remained constant for all animals. Throughout the experiment, a group of 4 animals (2 males/ 2 females) received the same Cypep-1 concentrations per bolus, respectively. All injections were performed very slowly in order to avoid cardiac stress. The mice were then observed for a period of 24h with regards to signs of distress and pain (e.g. orbital tightening, flattened ear position, formation of nose and/or cheek bulge, whisker change, overall activity level) as well as potential toxic effects. During the first 2 hours, the animals were monitored continuously and then checked again at 4 h, 6 h, 12 h and 24 h post injection.
# [3] = 125I-Cypep-1, i.v., 20 min after administration, gamma counting, single animal
sequence,measurement,setting,value
YGRKKRRQRRRGKTLRVAKAIYKRYIE [Cypep-1],"tissue distribution, cerebellum",[1]; [3],0.00 ml/g tissue wet weight
same,"tissue distribution, cerebrum",[1]; [3],0.01 ml/g tissue wet weight
same,"tissue distribution, colon",[1]; [3],0.14 ml/g tissue wet weight
same,"tissue distribution, eye",[1]; [3],0.02 ml/g tissue wet weight
same,"tissue distribution, jejunum",[1]; [3],0.17 ml/g tissue wet weight
same,"tissue distribution, kidneys (per kidney)",[1]; [3],1.685 ml/g tissue wet weight
same,"tissue distribution, liver",[1]; [3],11.74 ml/g tissue wet weight
same,"tissue distribution, lungs",[1]; [3],0.38 ml/g tissue wet weight
same,"tissue distribution, muscle tissue",[1]; [3],0.02 ml/g tissue wet weight
same,"tissue distribution, spleen",[1]; [3],4.89 ml/g tissue wet weight
same,"tissue distribution, stomach",[1]; [3],0.04 ml/g tissue wet weight
same,"tissue distribution, thyroid gland",[1]; [3],0.13 ml/g tissue wet weight
same,passage of the blood-brain-barrier,"[1]; concluded from very low concentrations in organs of the central nervous system, i.v.",did not pass the blood-brain-barrier
same,"surviving fraction, average of all cancer cell lines",all cancer cell lines,18.6%
same,leakage of ANTS from liposomes,[2]; 200 nm EYL liposomes,significant leakage of ANTS
same,leakage of ANTS from liposomes,[2]; 200 nm liposomes PBPS:EYL 1:1,significant leakage of ANTS
same,EC50,"[2]; ANTS/DPX leakage, 200 nm liposomes PBPS:EYL 1:1, read-out: S0.5, concentration necessary to achieve membrane disruption",8.3 ± 0.5 µM
same,"surviving fraction, average of normal human cell lines",normal human cell lines,56%
same,dose with first signs of toxicity (seizure-like catatonic stupor),BALB/c mice; slow tail vein injection,600 µg
same,dose with no signs of distress or pain,"BALB/c mice; slow tail vein injection, 24 h observation",up to 500 µg
same,lethal dose,"BALB/c mice; tail vein injection, death within 5 - 10 min",800 µg
